We go through 17 compounds from PubChem BioAssay AID256 (DTP/NCI, 2004).

In the experiment the test system is CD2F1 mice, L1210 leukemia ip, survival T/C. The experiment can be described thus: NCI In Vivo Anticancer Drug Screen. Data for tumor model L1210 Leukemia (intraperitoneal) in CD2F1 (CDF1) mice. As to conditions: higher = longer survival. The essentials:
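Vehicle-treated tumor-bearing mice served as controls (C) for compound-treated mice (T). Reported figure is T divided by C.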

Setting [1] is: endpoint: mean survival time, dose: 100.0 mg/kg/injection, schedule: Q01DX009 (ip), vehicle: saline with Tween-80.
Where [2] appears, read: endpoint: mean survival time, dose: 100.0 mg/kg/injection, schedule: Q04DX003 (ip), vehicle: saline with Tween-80.
The mark [3] stands for this setting: endpoint: mean survival time, dose: 200.0 mg/kg/injection, schedule: Q04DX003 (ip), vehicle: saline with Tween-80.
[4] abbreviates: endpoint: mean survival time, dose: 400.0 mg/kg/injection, schedule: Q01DX009 (ip), vehicle: saline with Tween-80.
The mark [5] stands for this setting: endpoint: mean survival time, dose: 400.0 mg/kg/injection, schedule: Q04DX003 (ip), vehicle: saline with Tween-80.
Setting [6] is: endpoint: mean survival time, dose: 25.0 mg/kg/injection, schedule: Q01DX009 (ip), vehicle: saline with Tween-80.
Setting [7] is: endpoint: mean survival time, dose: 50.0 mg/kg/injection, schedule: Q01DX009 (ip), vehicle: saline with Tween-80.
[8] abbreviates: endpoint: mean survival time, dose: 200.0 mg/kg/injection, schedule: Q01DX009 (ip), vehicle: saline.
Setting [9] is: endpoint: mean survival time, dose: 400.0 mg/kg/injection, schedule: Q01DX009 (ip), vehicle: saline.
Where [10] appears, read: endpoint: mean survival time, dose: 100.0 mg/kg/injection, schedule: Q01DX001 (ip), vehicle: saline with Tween-80.
Setting [11] is: endpoint: mean survival time, dose: 200.0 mg/kg/injection, schedule: Q01DX001 (ip), vehicle: saline with Tween-80.
Setting [12] is: endpoint: mean survival time, dose: 400.0 mg/kg/injection, schedule: Q01DX001 (ip), vehicle: saline with Tween-80.

“And” between values parts separate entries of the source, which are not always exact repeats. Equal entries are not always repeated. Inconclusive results and toxic doses are left out.

For the compound `C=C1C(C)C2C(Cc3ccccc3)NC(=O)C23C(OC(C)=O)/C=C/C(C)(O)CC(C)C/C=C/C3C1O` (configuration not stated), the T/C was 95 % of control (endpoint: mean survival time, dose: 0.37 mg/kg/injection, schedule: Q01DX009 (ip), vehicle: Klucel (hydroxypropylcellulose) (HPC)); 100 % of control (endpoint: mean survival time, dose: 0.75 mg/kg/injection, schedule: Q01DX009 (ip), vehicle: Klucel (hydroxypropylcellulose) (HPC)); 96 % of control (endpoint: mean survival time, dose: 1.5 mg/kg/injection, schedule: Q01DX009 (ip), vehicle: Klucel (hydroxypropylcellulose) (HPC)); 96 % of control (endpoint: mean survival time, dose: 3.0 mg/kg/injection, schedule: Q01DX009 (ip), vehicle: Klucel (hydroxypropylcellulose) (HPC)); 105 % of control (endpoint: mean survival time, dose: 6.0 mg/kg/injection, schedule: Q01DX009 (ip), vehicle: Klucel (hydroxypropylcellulose) (HPC)); 105 % of control (endpoint: mean survival time, dose: 12.0 mg/kg/injection, schedule: Q01DX009 (ip), vehicle: Klucel (hydroxypropylcellulose) (HPC)). Also, the T/C is 106 % of control (endpoint: mean survival time, dose: 375.0 micrograms/kg/injection, schedule: Q01DX009 (ip), vehicle: Klucel (hydroxypropylcellulose) (HPC)); 96 % of control (endpoint: mean survival time, dose: 750.0 micrograms/kg/injection, schedule: Q01DX009 (ip), vehicle: Klucel (hydroxypropylcellulose) (HPC)); 104 % of control (endpoint: mean survival time, dose: 1500.0 micrograms/kg/injection, schedule: Q01DX009 (ip), vehicle: Klucel (hydroxypropylcellulose) (HPC)); 101 % of control (endpoint: mean survival time, dose: 3000.0 micrograms/kg/injection, schedule: Q01DX009 (ip), vehicle: Klucel (hydroxypropylcellulose) (HPC)); 96 % of control (endpoint: mean survival time, dose: 6000.0 micrograms/kg/injection, schedule: Q01DX009 (ip), vehicle: Klucel (hydroxypropylcellulose) (HPC)).

On to `C1=CCC(CNc2ncnc3nc[nH]c23)=CC1`, for which the T/C runs as follows: under setting [1], 100 % of control; under setting [2], 98 % of control; (endpoint: mean survival time, dose: 200.0 mg/kg/injection, schedule: Q01DX009 (ip), vehicle: saline with Tween-80) 100 % of control; under setting [3], 98 % of control; under setting [4], 88 % of control; under setting [5], 104 % of control.

Take `Cc1ccc(C(O)(c2ccccc2)c2ccccc2C(=O)Nc2ccccc2)cc1` (configuration not stated): the T/C by setting is: under setting [2], 88 % of control; under setting [3], 90 % of control; under setting [5], 95 % of control.

With `O=C1C(=O)c2ccccc2C(O)=C1[N+](=O)[O-]`, the T/C under setting [1] is 96 % of control, the T/C under setting [2] was 100 % of control, the T/C under setting [3] is 103 % of control and the T/C under setting [5] was 112 % of control.

Regarding `CCOC(=O)c1c[nH]c2oc(/C=N/N3CC(CN4CCOCC4)OC3=O)cc2c1=O` (configuration not stated), the T/C (endpoint: mean survival time, dose: 12.5 mg/kg/injection, schedule: Q01DX009 (ip), vehicle: saline) is 97 % of control and 109 % of control; the T/C (endpoint: mean survival time, dose: 25.0 mg/kg/injection, schedule: Q01DX009 (ip), vehicle: other) is 102 % of control; the T/C under setting [6] was 107 % of control; the T/C (endpoint: mean survival time, dose: 25.0 mg/kg/injection, schedule: Q01DX009 (ip), vehicle: saline) was 97 % of control and 103 % of control; the T/C (endpoint: mean survival time, dose: 50.0 mg/kg/injection, schedule: Q01DX009 (ip), vehicle: other) is 110 % of control; the T/C under setting [7] was 109 % of control. Besides, the T/C runs as follows: (endpoint: mean survival time, dose: 50.0 mg/kg/injection, schedule: Q01DX009 (ip), vehicle: saline) 114 % of control and 101 % of control; under setting [1], 124 % of control; (endpoint: mean survival time, dose: 200.0 mg/kg/injection, schedule: Q01DX009 (ip), vehicle: other) 160 % of control; under setting [8], 158 % of control; (endpoint: mean survival time, dose: 400.0 mg/kg/injection, schedule: Q01DX009 (ip), vehicle: other) 96 % of control; under setting [4], 152 % of control. The T/C reads like this: under setting [9], 124 % of control and 100 % of control; (endpoint: median survival time, dose: 50.0 mg/kg/injection, schedule: Q01DX005 (ip), vehicle: other) 112 % of control; (endpoint: median survival time, dose: 50.0 mg/kg/injection, schedule: Q01DX009 (ip), vehicle: acid diluted with saline) 115 % of control and 101 % of control; (endpoint: median survival time, dose: 100.0 mg/kg/injection, schedule: Q01DX005 (ip), vehicle: other) 118 % of control; (endpoint: median survival time, dose: 100.0 mg/kg/injection, schedule: Q01DX009 (ip), vehicle: acid diluted with saline) 124 % of control; (endpoint: median survival time, dose: 400.0 mg/kg/injection, schedule: Q01DX005 (ip), vehicle: other) 190 % of control. Moreover, the T/C (endpoint: median survival time, dose: 400.0 mg/kg/injection, schedule: Q01DX009 (ip), vehicle: acid diluted with saline) is 90 % of control.

Turning to `O.O=C(O)C(Cc1ccc(O)cc1)N=Cc1c(O)cncc1COP(=O)(O)O.[Cu]` (configuration not stated), the T/C by setting is: (endpoint: mean survival time, dose: 12.5 mg/kg/injection, schedule: Q01DX001 (ip), vehicle: saline with Tween-80) 95 % of control; (endpoint: mean survival time, dose: 25.0 mg/kg/injection, schedule: Q01DX001 (ip), vehicle: saline with Tween-80) 103 % of control; (endpoint: mean survival time, dose: 50.0 mg/kg/injection, schedule: Q01DX001 (ip), vehicle: saline with Tween-80) 98 % of control.

As for `OCC(O)COCc1ccccc1` (configuration not stated), the T/C by setting is: (endpoint: mean survival time, dose: 100.0 mg/kg/injection, schedule: Q01DX009 (ip), vehicle: saline) 94 % of control; under setting [8], 94 % of control; under setting [9], 96 % of control.

Turning to `CC1(C)N=C(N)N=C(N)N1c1ccc(OCCOc2ccc(S(=O)(=O)F)cc2)c(Cl)c1`, the T/C (endpoint: mean survival time, dose: 25.0 mg/kg/injection, schedule: Q04DX003 (ip), vehicle: saline with Tween-80) is 114 % of control and the T/C under setting [2] was 120 % of control.

`Cn1nc(N)c2ncc(-c3ccc(Cl)cc3)nc21`: the T/C is 91 % of control (endpoint: mean survival time, dose: 100.0 mg/kg/injection, schedule: Q04DX003 (ip), vehicle: alcohol); 89 % of control (endpoint: mean survival time, dose: 200.0 mg/kg/injection, schedule: Q04DX003 (ip), vehicle: alcohol); 91 % of control (endpoint: mean survival time, dose: 400.0 mg/kg/injection, schedule: Q04DX003 (ip), vehicle: alcohol).

Consider `COc1cc(C)c(O)c(C[P+](c2ccccc2)(c2ccccc2)c2ccccc2)c1`, for which the T/C under setting [6] was 98 % of control; the T/C under setting [7] is 94 % of control; the T/C (endpoint: mean survival time, dose: 50.0 mg/kg/injection, schedule: Q04DX003 (ip), vehicle: saline with Tween-80) was 106 % of control; the T/C under setting [2] was 96 % of control.

With `c1ccc(CNc2nnnc3ccccc23)cc1`, the T/C was 100 % of control under setting [10], 88 % of control under setting [11] and 94 % of control under setting [12].

For the compound `CC(=O)COc1ccccc1[N+](=O)[O-]`, the T/C reads like this: under setting [10], 108 % of control; under setting [11], 104 % of control; under setting [12], 112 % of control.

Regarding `CN=C(N)c1ccc(N=C(N)c2ccc(NC(=O)c3ccc(C(N)=NC)cc3)cc2)cc1`, the T/C (endpoint: mean survival time, dose: 30.0 mg/kg/injection, schedule: Q01DX Z (ip), vehicle: water) is 151 % of control.

As to `O=[N+]([O-])O.[NH-]C1CCCCC1[NH-].[NH-]C1CCCCC1[NH-].[Ni+2]` (configuration not stated), the T/C (endpoint: mean survival time, dose: 50.0 mg/kg/injection, schedule: Q04DX002 (ip), vehicle: saline with Tween-80) was 110 % of control and the T/C (endpoint: mean survival time, dose: 100.0 mg/kg/injection, schedule: Q04DX002 (ip), vehicle: saline with Tween-80) was 113 % of control.

Turning to `Cc1nc2ccc(CCN3CCN(c4ccccc4Cl)CC3)cc2[nH]1`, the T/C (endpoint: mean survival time, dose: 50.0 mg/kg/injection, schedule: Q04DX003 (ip), vehicle: Klucel (hydroxypropylcellulose) (HPC)) is 112 % of control.

Consider `COc1cccc(/C(C)=N\NC(=O)c2ccccc2)c1`, for which the T/C under setting [6] was 98 % of control, the T/C under setting [7] was 95 % of control, the T/C under setting [1] was 88 % of control and the T/C under setting [2] is 96 % of control.

As to `NCC(O)c1ccc(O)c(O)c1` (configuration not stated), the T/C runs as follows: (endpoint: mean survival time, dose: 0.5 mg/kg/injection, schedule: Q01DX009 (ip), vehicle: saline) 98 % of control; (endpoint: mean survival time, dose: 0.75 mg/kg/injection, schedule: Q01DX001 (ip), vehicle: saline) 106 % of control; (endpoint: mean survival time, dose: 1.0 mg/kg/injection, schedule: Q01DX009 (ip), vehicle: saline) 109 % of control; (endpoint: mean survival time, dose: 1.5 mg/kg/injection, schedule: Q01DX001 (ip), vehicle: saline) 98 % of control; (endpoint: mean survival time, dose: 2.0 mg/kg/injection, schedule: Q01DX009 (ip), vehicle: saline) 98 % of control; (endpoint: mean survival time, dose: 3.0 mg/kg/injection, schedule: Q01DX001 (ip), vehicle: saline) 101 % of control. The T/C is 113 % of control (endpoint: mean survival time, dose: 4.0 mg/kg/injection, schedule: Q01DX009 (ip), vehicle: saline); 104 % of control (endpoint: mean survival time, dose: 6.0 mg/kg/injection, schedule: Q01DX001 (ip), vehicle: saline); 100 % of control (endpoint: mean survival time, dose: 8.0 mg/kg/injection, schedule: Q01DX009 (ip), vehicle: saline); 100 % of control (endpoint: mean survival time, dose: 12.0 mg/kg/injection, schedule: Q01DX001 (ip), vehicle: saline).
